# Measured values as given in publication PMC9266750, “Catalase Inhibition by Aminoalkanol Derivatives with Potential Anti-Cancer Activity—In Vitro and In Silico Studies Using Capillary Electrophoresis Method” (International Journal of Molecular Sciences, 2022).
# Where two headings read alike, the source gives them in different places.
# Experiments:
# [1] = molecular target: T1, Catalase from human erythrocytes (EC 1.11.1.6, CAT) (Homo sapiens, UniProt P04040); experiment: Catalase (CAT) inhibition kinetics by capillary electrophoresis (hydrogen peroxide/guaiacol/tetraguaiacol); type: biochemical; details: for Type of inhibition: from Km and Vmax versus control system; for IC50: from activity (%) versus inhibitor concentration plots, one value per compound; for Slope (slope angle of Lineweaver–Burk line): n = 6; for tetraguaiacol (TGCOL) concentration in the presence of inhibitor / guaiacol (GCOL) concentration in the presence of inhibitor: hydrogen peroxide 10 mM, 20.00 mM GCOL; for tetraguaiacol (TGCOL) concentration in the presence of inhibitor: without inhibitors 0.00 mM; for guaiacol (GCOL) concentration in the presence of inhibitor: without inhibitors 20.00 mM
# T1 construct: Catalase from human erythrocytes (EC 1.11.1.6, CAT); purchased Sigma–Aldrich (Poznań, Poland); host or cells: human erythrocytes (natural source)
# T1 sequence (P04040 2-527 limits assumed): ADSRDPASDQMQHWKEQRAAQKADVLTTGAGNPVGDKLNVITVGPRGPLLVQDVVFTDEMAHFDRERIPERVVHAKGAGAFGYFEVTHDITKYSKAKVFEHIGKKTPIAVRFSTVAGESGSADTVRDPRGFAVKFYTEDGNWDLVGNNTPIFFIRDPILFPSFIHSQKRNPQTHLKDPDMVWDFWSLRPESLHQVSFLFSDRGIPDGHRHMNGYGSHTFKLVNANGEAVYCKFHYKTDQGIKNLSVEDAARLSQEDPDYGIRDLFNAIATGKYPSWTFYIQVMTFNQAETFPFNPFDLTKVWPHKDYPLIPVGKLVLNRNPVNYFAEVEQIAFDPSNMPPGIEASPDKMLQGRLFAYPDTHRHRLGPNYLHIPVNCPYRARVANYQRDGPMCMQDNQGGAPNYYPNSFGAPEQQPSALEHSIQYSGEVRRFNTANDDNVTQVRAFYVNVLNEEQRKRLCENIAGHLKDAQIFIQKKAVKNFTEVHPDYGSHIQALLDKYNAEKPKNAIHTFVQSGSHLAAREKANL
# Description: In this study, we used the capillary electrophoresis (CE) method developed by us to determine the tetraguaiacol complex as a product of the catalase-catalyzed reaction (CAT) (Table 1) in the presence of the enzyme, hydrogen peroxide (HPER) (as a substrate), guaiacol (GCOL) and inhibitors (I), (II), (III) and (IV) (Figure 2). Based on this method, we investigated changes in the concentration of guaiacol reacting with changes in the concentration of hydrogen peroxide depending on the activity of catalase and changes in the concentrations of the formed tetraguaiacol as the final reaction product. The developed CE technique made it possible to measure all the parameters thanks to the possibility of using three wavelengths simultaneously in one analysis. Investigations of kinetic parameters were based on mutual measurements of concentration changes between guaiacol (as the second reactant reacting with hydrogen peroxide) and tetraguaiacol as the final reaction product.
# For the development of this method, we optimized the buffer pH, separating background electrolyte (BGE) concentration, wavelength, temperature, and voltage in accordance with the earlier procedure. […]. All these separation systems were tested to achieve the best separation parameters, resolution, and analysis time for all components in the reaction mixture. The best separation of tetraguaiacol, guaiacol, catalase (CAT) and compounds (I), (II), (III), (IV) was obtained with 100 mM phosphate buffer (pH 7.5). The measurements were taken at 214, 274 and 470 nm with a fused-silica capillary (effective length: 20 cm, diameter: 50 μm). The capillary temperature was 25 °C, which allowed the best resolution to be achieved. Separation was carried out at 20 kV. Each sample was added to the capillary under hydrodynamic injection. Average detection times for guaiacol (GCOL), compounds (I), (II), (III), (IV), tetraguaiacol (TGCOL) and CAT were […], respectively (Figure 2). […]. […]
# Electrophoretic separations of catalase (CAT), hydrogen peroxide, guaiacol (GCOL) tetra guaiacol (TGCOL), and inhibitors (I), (II), (III) and (IV) of catalase, by CE was performed using 100 mM (NaH2PO4) phosphate buffer as a background electrolyte (BGE) adjusted with 100 mM sodium hydroxide to the pH = 7.5. The samples were injected under 5 psi pressure for 3 s. The experiments were performed under constant current conditions (97 μA). The separation temperature was 25 °C, and the detection wavelengths were set at 214, 274 and 470 nm. Before the assay, the capillary was conditioned according to the previously described procedure.
# Sample mixtures containing catalase (CAT), hydrogen peroxide (HPER), guaiacol (GCOL), tetra guaiacol (TGCOL), and inhibitors (I), (II), (III) and (IV) were introduced automatically by pressure injection (with 5 psi pressure for 3 s on the sample solution). At the day’s end, vials with anode and a cathode buffer were emptied and a running buffer was filled again at the start of the next day before the analysis. The detector wavelength was fixed at 470 nm. Hydrogen peroxide was not detected at wavelength of 470 nm. The appropriate parameters for analyzing CAT, TGCOL and (I), (II), (III) and (IV) inhibitors were as follows: phosphate buffer (pH = 7.5) of 100 mM concentration, 25 °C temperature, and 20 kV voltage.
# The CAT in the amount of 10 μg was dissolved in the 10 mL 100 mM phosphate buffer, pH 7.5 and divided into several portions, which were stored at −20 °C. One aliquot was thawed each day and the CAT activity was checked. For kinetic studies a catalase solution with a final concentration of 1 µg/mL was prepared. The working solutions of GCOL, TGCOL and HPER in appropriate concentrations were prepared immediately before use by dilution with the phosphate buffer according to the previously described procedure. […]
# acid phosphatase = tested on: acid phosphatase; design: method as in PMID 34769193; details: cited from earlier work
# acetylcholinesterase = details: cited from earlier work
# alkaline phosphatase = details: cited from earlier work
# CAT = details: cited from earlier work
# [2] = inhibitor 2.50 mM, without inhibitor 1.26 ± 0.02
# [3] = inhibitor 2.50 mM, without inhibitor 23.31 ± 0.04
Structure (SMILES),Type of inhibition [1],IC50 [1] [mM],"Vmax [1, 2] [mM/min]","Slope (slope angle of Lineweaver–Burk line) [1, 3]",Vmax ([1]; inhibitor 5.00 mM) [mM/min],Slope (slope angle of Lineweaver–Burk line) ([1]; inhibitor 5.00 mM),Vmax ([1]; inhibitor 10.00 mM) [mM/min],Slope (slope angle of Lineweaver–Burk line) ([1]; inhibitor 10.00 mM),Vmax ([1]; inhibitor 15.00 mM) [mM/min],Slope (slope angle of Lineweaver–Burk line) ([1]; inhibitor 15.00 mM),Vmax ([1]; inhibitor 20.00 mM) [mM/min],tetraguaiacol (TGCOL) concentration in the presence of inhibitor ([1]; inhibitor 20.00 mM) [mM],guaiacol (GCOL) concentration in the presence of inhibitor ([1]; inhibitor 20.00 mM) [mM],Slope (slope angle of Lineweaver–Burk line) ([1]; inhibitor 20.00 mM),inhibition of enzymatic activity (acid phosphatase),inhibition of enzymatic activity (acetylcholinesterase),inhibition of enzymatic activity (alkaline phosphatase),IC50 (CAT) [mM],IC50 (CAT; specific catalase inhibitor) [mM]
CCC12C(=O)C(CC)(C(c3ccccc3)=C1c1ccccc1)C1C(=O)N(CC(O)CN(C)C)C(=O)C12 (stereo not shown) [Compound (II)],Competitive,12.8 ± 0.07,1.24 ± 0.06,23.70 ± 0.05,1.24 ± 0.06,24.24 ± 0.05,1.26 ± 0.03,25.30 ± 0.06,1.25 ± 0.04,26.00 ± 0.04,1.24 ± 0.04,2.44,17.56,27.06 ± 0.05,inhibited,inhibited,inhibited,–,–
NO [hydroxylamine],–,–,–,–,–,–,–,–,–,–,–,–,–,–,–,–,–,0.02,–
CCC12C(=O)C(CC)(C(c3ccccc3)=C1c1ccccc1)C1C(=O)N(CC(O)CNC(C)C)C(=O)C12 (stereo not shown) [Compound (I)],Competitive,11.4 ± 0.05,1.25 ± 0.04,24.72 ± 0.05,1.24 ± 0.07,25.43 ± 0.05,1.25 ± 0.05,27.33 ± 0.06,1.24 ± 0.07,28.62 ± 0.06,1.25 ± 0.05,5.86,14.14,30.75 ± 0.04,inhibited,inhibited,inhibited,–,–
CN(C)CC(O)CN1C(=O)C2C(C1=O)C1(C)C(=O)C2(C)C(c2ccccc2)=C1c1ccccc1 (stereo not shown) [Compound (IV)],Competitive,12.2 ± 0.06,1.25 ± 0.03,24.33 ± 0.06,1.24 ± 0.06,25.00 ± 0.05,1.24 ± 0.06,26.24 ± 0.04,1.23 ± 0.05,27.30 ± 0.05,1.26 ± 0.02,4.39,15.61,29.27 ± 0.03,inhibited,inhibited,inhibited,–,–
[N-]=[N+]=[N-] [sodium azide],–,–,–,–,–,–,–,–,–,–,–,–,–,–,–,–,–,0.025,–
CC(C)NCC(O)CN1C(=O)C2C(C1=O)C1(C)C(=O)C2(C)C(c2ccccc2)=C1c1ccccc1 (stereo not shown) [Compound (III)],Competitive,10.3 ± 0.03,1.24 ± 0.07,25.09 ± 0.04,1.25 ± 0.08,25.84 ± 0.05,1.24 ± 0.07,28.60 ± 0.04,1.24 ± 0.09,–,1.25 ± 0.02,8.29,11.71,32.68 ± 0.02,inhibited,inhibited,inhibited,–,–
"Nc1nc[nH]n1 [3-Amino-1,2,4-triazole]",–,–,–,–,–,–,–,–,–,–,–,–,–,–,–,–,–,–,6
